pIC50: −log10 of the molar value.
How the values were obtained:
[1] = test system: T-type channels; parameters: method as in Kevin et al., 2022; details: single 10 μM concentration, FLIPR calcium flux and whole-cell patch clamp, ref Kevin et al., 2022; cited from earlier work
[2] = target: T1, human Cav3.3 (Homo sapiens, UniProt Q9P0X4); assay: FLIPR calcium flux assay, Cav3.3; type: cell-based
T1 construct: expressed in transfected cells; host or cells: HEK293 FlpIn T-Rex cells (Invitrogen)
Procedure: HEK293 FlpIn T-Rex cells (Invitrogen, CA, United States) stably expressing human Cav3.1, Cav3.2, or Cav3.3 were maintained in Dulbecco’s Modified Eagle Medium (DMEM) supplemented with 10% foetal bovine serum (FBS), 1% penicillin-streptomycin (P/S) at 37°C, and 5% CO2 as previously described ([Bladen et al., 2021]; [Udoh et al., 2022]). Hygromycin (80 μg/mL) and blasticidin (15 μg/mL) were used as selection antibiotics and cells were passaged at 80% confluency. For experiments, cells were resuspended in Leibovitz’s L-15 media (containing 1% FBS, 1% P/S, 15 mM glucose, 2 μg/mL tetracycline), plated in black, clear-bottomed poly-D-lysine-coated 96-well plates (90 μL) (Corning, NY, United States), and incubated overnight in ambient air at 37°C. All compounds tested in cellular assays were prepared as stock solutions in DMSO and final DMSO concentration was 0.1%.
Intracellular calcium flux was measured using a fluorometric imaging plate-reader (FLIPR) Calcium 5 Assay Kit and FlexStation 3 Microplate Reader (Molecular Devices, San Jose, United States). Calcium 5 dye (90 μL) prepared in low potassium HBSS (Thermo Fisher Scientific) containing (in mM) 145 NaCl, 22 HEPES, 0.338 Na2HPO4, 4.17 NaHCO3, 0.441 KH2PO4, 0.407 MgSO4, 0.493 MgCl2, 1.26 CaCl2, 5.56 glucose, and […] with pH 7.4 was applied to each well and incubated for 1 h at 37°C, ambient air prior to testing.
Fluorescence readings were taken at 2 s intervals (λ excitation = 485 nm, λ emission = 525 nm). Following 2 min baseline reading, 20 μL of SB2193, SB2193F, or NNC 55-0396 (10 nM—10 μM) was added to cells and read for 5 min, then CaCl2 (10 mM) was added and read for 3 min. Baseline fluorescence averaged over the 20 s interval preceding CaCl2 addition was subtracted and normalized to the vehicle response. Changes in fluorescence were measured in relative fluorescence units (RFU). All compounds were assayed in ≥ five independent experiments (n = 5–8) performed in duplicate. Order of compound addition and location on the plate were varied between replicates. Data was fit to a four-parameter non-linear dose-response curve using GraphPad Prism 8.2.0 software (La Jolla, United States) to determine IC50 values.

[3] = test system: 6 Hz-induced seizures in Swiss mice; assay: 6 Hz seizure model in mice; type: in vivo, mouse
Procedure: Swiss outbred mice used in 6 Hz seizure experiments were purchased from Australian Resources Centre (stock ARC(S); Canning Vale, Australia) and single housed for 1 week prior to experimentation to prevent fighting.
6 Hz seizures were induced in Swiss male mice (9–10 weeks old) using an Ugo Basile electroconvulsive therapy unit (Model 57,800; Gemonio, Italy). Mice were pre-treated with vehicle, SB2193 (10 mg/kg, 30 mg/kg, 100 mg/kg) or valproic acid (300 mg/kg) via i.p. injection 15 min before seizure induction based on the time-to-peak brain concentration determined in pharmacokinetic studies. […] A drop of 0.5% tetracaine was applied to both corneas immediately following the i.p. injection to provide local anaesthesia. Immediately prior to the electrical stimulation, saline was applied to each cornea to ensure electrical conductivity. Corneal electroshocks were administered at 44 mA, 6 Hz, 3 s shock duration, with a […] rectangular pulse width. Mice were shocked and scored by an observer blinded to treatment for the presence of twitching of the vibrissae, stun, myoclonus, rearing, forelimb clonus, and/or Straub tail. […] The ED50 for SB2193 was calculated using computer-assisted log-probit linear regression analysis ([Litchfield and Wilcoxon, 1949]). A χ^2 test was performed to assess statistical significance.

[4] = test system: Scn1a +/- mouse model of Dravet syndrome; assay: Spontaneous seizures and survival monitoring in Scn1a+/- mice; type: in vivo
Procedure: Scn1a ^ +/− mice purchased from The Jackson Laboratory (stock 37107-JAX; Bar Harbour, United States) were maintained as a congenic line on a 129S6/SvEvTac background (129. Scn1a ^+/−). F1 mice were generated by crossing 129. Scn1a ^+/− mice with wild-type C57BL/6J mice (Jackson Laboratory stock no. 000664) and group housed. Scn1a genotype was determined as previously described ([Miller et al., 2014]).
On P18, male and female Scn1a ^ +/− mice were weaned and randomly assigned to treatment groups (untreated or SB2193) with n = 17–19 per group. For spontaneous seizure and survival experiments, SB2193 was administered sub-chronically via supplementation of the compound into chow to avoid stress associated with repeated i.p. injections. Chow was formulated at 5,000 mg/kg SB2193 in chow to provide target brain concentrations of 0.73 μM, with the daily oral dose based on the assumption that each mouse consumes approximately 3 g chow/day. Bodyweight of mice was monitored during the administration period to ensure consumption of chow. Animals in both treatment groups gained weight at an equivalent rate over the chow supplementation period (Supplementary Figure S1).
Continuous video recordings from 00:00 P23 to 24:00 P24 were made using a Samsung SCB-5003 days/night camera equipped with an infrared lens (Seoul, South Korea). The number of spontaneous generalised tonic-clonic seizures (GTCS) occurring over the 48 h recording period was quantified offline by a blinded observer. Statistical comparison was performed in GraphPad Prism using a Mann-Whitney U test as data were non-parametric. Treatment was continued to P30 to monitor survival of mice. Scn1a ^ +/− mice have a high premature mortality rate, with approximately 50% of animals surviving to P30 ([Miller et al., 2014]). We have observed substantial variability in the mortality rate across experimental cohorts which is difficult to explain and likely due to stochastic factors ([Anderson et al., 2020]; [Anderson et al., 2021]; [Anderson et al., 2022]). […]

T1 sequence (Q9P0X4 whole entry): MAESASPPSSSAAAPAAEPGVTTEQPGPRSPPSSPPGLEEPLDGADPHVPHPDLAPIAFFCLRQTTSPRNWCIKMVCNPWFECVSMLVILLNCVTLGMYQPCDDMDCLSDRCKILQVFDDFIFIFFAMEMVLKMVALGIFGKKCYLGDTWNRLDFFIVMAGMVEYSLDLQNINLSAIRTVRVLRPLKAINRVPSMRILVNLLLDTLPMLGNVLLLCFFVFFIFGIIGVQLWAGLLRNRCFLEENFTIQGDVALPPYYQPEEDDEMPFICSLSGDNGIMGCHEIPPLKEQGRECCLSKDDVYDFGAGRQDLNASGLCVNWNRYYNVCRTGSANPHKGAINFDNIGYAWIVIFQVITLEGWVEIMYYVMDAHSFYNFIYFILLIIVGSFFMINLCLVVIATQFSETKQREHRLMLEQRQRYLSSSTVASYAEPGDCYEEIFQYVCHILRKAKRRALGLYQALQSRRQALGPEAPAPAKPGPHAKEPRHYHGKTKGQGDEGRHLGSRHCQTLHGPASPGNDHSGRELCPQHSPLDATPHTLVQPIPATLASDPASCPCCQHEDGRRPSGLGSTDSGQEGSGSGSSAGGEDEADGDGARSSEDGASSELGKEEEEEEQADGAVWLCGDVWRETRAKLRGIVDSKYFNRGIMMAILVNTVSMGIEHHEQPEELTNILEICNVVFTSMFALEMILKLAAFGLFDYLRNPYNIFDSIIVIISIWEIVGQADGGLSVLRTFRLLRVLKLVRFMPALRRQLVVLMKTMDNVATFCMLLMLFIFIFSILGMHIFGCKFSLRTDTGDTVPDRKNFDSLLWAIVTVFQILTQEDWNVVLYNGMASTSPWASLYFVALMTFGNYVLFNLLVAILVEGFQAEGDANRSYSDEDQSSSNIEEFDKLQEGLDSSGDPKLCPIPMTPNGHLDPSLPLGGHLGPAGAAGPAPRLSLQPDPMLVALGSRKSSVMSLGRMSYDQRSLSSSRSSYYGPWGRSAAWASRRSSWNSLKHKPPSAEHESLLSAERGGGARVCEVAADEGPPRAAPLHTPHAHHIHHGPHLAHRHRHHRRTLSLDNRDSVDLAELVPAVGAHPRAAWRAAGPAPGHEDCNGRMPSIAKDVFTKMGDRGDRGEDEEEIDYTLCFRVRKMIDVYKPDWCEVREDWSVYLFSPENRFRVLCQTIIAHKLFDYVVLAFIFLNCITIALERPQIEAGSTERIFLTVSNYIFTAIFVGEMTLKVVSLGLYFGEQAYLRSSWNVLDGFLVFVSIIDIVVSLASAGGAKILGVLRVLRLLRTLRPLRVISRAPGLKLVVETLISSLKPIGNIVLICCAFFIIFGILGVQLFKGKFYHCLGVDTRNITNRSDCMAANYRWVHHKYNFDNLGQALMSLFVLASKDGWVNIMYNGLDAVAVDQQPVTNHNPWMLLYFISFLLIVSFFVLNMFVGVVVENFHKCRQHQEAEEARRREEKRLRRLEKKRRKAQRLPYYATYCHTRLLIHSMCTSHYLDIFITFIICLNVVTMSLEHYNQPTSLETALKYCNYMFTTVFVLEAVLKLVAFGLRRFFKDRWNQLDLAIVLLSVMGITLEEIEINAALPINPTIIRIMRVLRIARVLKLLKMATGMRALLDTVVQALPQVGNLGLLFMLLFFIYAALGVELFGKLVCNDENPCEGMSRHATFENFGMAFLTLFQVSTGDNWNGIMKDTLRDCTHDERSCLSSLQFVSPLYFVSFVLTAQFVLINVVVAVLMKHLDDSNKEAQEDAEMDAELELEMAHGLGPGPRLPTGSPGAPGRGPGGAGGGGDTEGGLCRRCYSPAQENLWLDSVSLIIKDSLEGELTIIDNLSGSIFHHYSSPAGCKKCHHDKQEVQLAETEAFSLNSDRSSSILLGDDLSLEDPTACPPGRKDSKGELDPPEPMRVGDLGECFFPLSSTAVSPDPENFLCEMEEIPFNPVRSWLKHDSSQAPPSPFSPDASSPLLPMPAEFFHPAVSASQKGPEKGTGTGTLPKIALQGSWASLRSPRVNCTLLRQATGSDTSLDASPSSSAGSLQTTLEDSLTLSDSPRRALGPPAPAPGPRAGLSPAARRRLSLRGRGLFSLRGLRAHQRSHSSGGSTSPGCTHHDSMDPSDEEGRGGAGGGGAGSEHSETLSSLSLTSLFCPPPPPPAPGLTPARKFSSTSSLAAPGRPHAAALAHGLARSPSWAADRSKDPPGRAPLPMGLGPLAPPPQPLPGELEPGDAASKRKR

In the case of `CCCCCn1cc(C(=O)N2CCN(C(=O)OC(C)(C)C)CC2)c2ccccc21` [SB2193], the “inhibition of T-type channels” value [1] is listed as “strongly inhibit”, the pIC50 [2] is listed as 5.27 and the “percentage of mice protected from seizures compared to vehicle” value ([3]; 100 mg/kg i.p., 15 min before 6 Hz 44 mA stimulation, n = 10) is listed as “significantly increased”. The ED50 ([3]; Mus musculus, ip, log-probit analysis, estimated) was roughly 120 mg/kg, the “survival of mice to P30” value ([4]; 5,000 mg/kg chow orally P18–P30) was “no effect” and the “spontaneous seizure (GTCS) frequency vs control mice” value ([4]; 5,000 mg/kg chow orally from P18, 48 h recording P23-24, n = 17–19) was “did not decrease”. The bodyweight change ([4]; SB2193-treated vs untreated chow, P18 to P30, n = 14) was “no effect of treatment”.

Reference: publication PMC10110893, “[…]-derived synthetic cannabinoids inhibit T-type calcium channels with divergent effects on seizures in rodent models of epilepsy” (Frontiers in Physiology, 2023)
